Data from ChEMBL document CHEMBL1201862, “PubChem BioAssay data set” (2004).
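Exposure lasted 48 hours, with cells grown in 96-well plates and compounds tested at five concentrations. GI50: concentration for 50% inhibition of growth.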 Active and inactive are the calls of the source. No stated cut-off is given here; in the data, active = GI50 up to about 1.1 µM and inactive = higher.

How the values were obtained:
Experiment in all cases: NCI anticancer screen, dose series, 48 h
[1] = test system: MDA-MB-231
[2] = test system: UO-31
[3] = test system: PC-3
[4] = test system: HCT-15
[5] = test system: NCI/ADR-RES
[6] = test system: HL-60
[7] = test system: NCI-H226
[8] = test system: Malme-3M
[9] = test system: NCI-H23
[10] = test system: MDA-MB-435
[11] = test system: KM12
[12] = test system: SF-268
[13] = test system: SK-MEL-28
[14] = test system: SF-539
[15] = test system: SK-MEL-2

SMILES	GI50 [1]	GI50 [2]	GI50 [3]	GI50 [4]	GI50 [5]	GI50 [6]	GI50 [7]	GI50 [8]	GI50 [9]	GI50 [10]	GI50 [11]	GI50 [12]	GI50 [13]	GI50 [14]	GI50 [15]
Cc1c(CNc2ccc(C(=O)NC(CCCNC(=O)c3ccccc3C(=O)O)C(=O)O)cc2)cnc2nc(N)nc(N)c12 (stereo not given)	3.23 µM (inactive)	0.001 µM (active)	2 µM (inactive)	0.000453 µM	0.000298 µM (active)	> 100 µM (inactive)	0.000617 µM (active)	0.468 µM (active)	0.00151 µM (active)	0.000596 µM (active)	0.000521 µM (active)	0.000356 µM (active)	0.192 µM (active)	0.000461 µM (active)	1.22 µM (inactive)
CCOP(=O)(CCCC(O)CNc1nc(N)nc(Cl)c1/N=N/c1ccc(Cl)cc1)OCC (stereo not given)	2.59 µM (inactive)	3.56 µM (inactive)	4.86 µM (inactive)	6.28 µM	10.4 µM (inactive)	1.75 µM (inactive)	7.05 µM (inactive)	7.64 µM (inactive)	12.1 µM (inactive)	5.85 µM (inactive)	11.2 µM (inactive)	4.27 µM (inactive)	8.22 µM (inactive)	9.25 µM (inactive)	12.2 µM (inactive)
NC(=O)CC(/N=C1\C(=O)OC(C(O)CO)\C1=N/C(CC(N)=O)C(=O)O)C(=O)O (stereo not given)	> 100 µM (inactive)	> 100 µM (inactive)	> 100 µM (inactive)	> 100 µM	> 100 µM (inactive)	> 100 µM (inactive)	> 100 µM (inactive)	> 100 µM (inactive)	> 100 µM (inactive)	> 100 µM (inactive)	> 100 µM (inactive)	> 100 µM (inactive)	> 100 µM (inactive)	> 100 µM (inactive)	> 100 µM (inactive)
CC(C)CC(NC(=O)C(O)C(N)Cc1ccccc1)C(=O)O (stereo not given)	> 100 µM (inactive)	56.4 µM (inactive)	> 100 µM (inactive)	> 100 µM	> 100 µM (inactive)	> 100 µM (inactive)	> 100 µM (inactive)	> 100 µM (inactive)	> 100 µM (inactive)	> 100 µM (inactive)	> 100 µM (inactive)	> 100 µM (inactive)	> 100 µM (inactive)	> 100 µM (inactive)	> 100 µM (inactive)
CCCCCCCCCCCCCCCCOCC(O)CO (stereo not given)	18.5 µM (inactive)	17.1 µM (inactive)	16.5 µM (inactive)	18.7 µM	16.7 µM (inactive)	7.18 µM (inactive)	18.7 µM (inactive)	19.2 µM (inactive)	17.9 µM (inactive)	17.4 µM (inactive)	17.4 µM (inactive)	17.1 µM (inactive)	18.6 µM (inactive)	16.3 µM (inactive)	20.6 µM (inactive)
N=C(N)NS(=O)(=O)c1ccc(Nc2c3ccccc3nc3c(C(=O)NCCO)cccc23)cc1	0.207 µM (active)	0.175 µM (active)	0.21 µM (active)	0.236 µM	0.296 µM (active)	0.293 µM (active)	0.142 µM (active)	0.156 µM (active)	0.167 µM (active)	0.173 µM (active)	0.177 µM (active)	0.171 µM (active)	0.248 µM (active)	0.193 µM (active)	0.199 µM (active)
CN(C)CCCCN1c2ccccc2Sc2ccc(N=[N+]=[N-])cc21	7.28 µM (inactive)	6.34 µM (inactive)	3.15 µM (inactive)	3.72 µM	9.98 µM (inactive)	2.06 µM (inactive)	6.11 µM (inactive)	1.76 µM (inactive)	13.3 µM (inactive)	2.06 µM (inactive)	3.15 µM (inactive)	5.97 µM (inactive)	1.91 µM (inactive)	5.05 µM (inactive)	3.08 µM (inactive)
